The values that follow come from ChEMBL document CHEMBL1152525, “Synthesis and anti-HIV activity of novel 2',3'-dideoxy-3'-thiacytidine prodrugs” (Bioorg Med Chem, 2009).

A short description of one data set: physchem. The note with it: octanol/water.
Data set [1] deals with Human immunodeficiency virus 1. The experiment in a line: microbe, parasite or virus in culture. The note with it: Human immunodeficiency virus 1, 168 h.
Description: Antiviral activity against HIV1 infected in human PBMC assessed as inhibition of viral p24 antigen production after 7 days by ELISA
The next data set in a line: in vitro. The note with it: human, PBMC.

Description for in vitro: Cytotoxicity against human PBMC after 7 days by sulforhodamine B assay
Description for physchem: Lipophilicity, log P of the compound

As to `CCCCOC(=O)OC[C@H]1O[C@@H](n2ccc(N)nc2=O)CS1`, in the data set “physchem”, the logP stood at 0.86. The concentration for half-maximal inhibition (IC50) in data set [1] is 0.2 µM. Moreover, the CC50 at 168 h in the data set “in vitro” turned out to be 4500 µM.
On to `CCCCCCOC(=O)OC[C@H]1O[C@@H](n2ccc(N)nc2=O)CS1`, for which the log partition coefficient (logP) in “physchem” came to 1.57. This compound registered a half-maximal inhibitory concentration (IC50) in data set [1] of 0.25 µM. Besides, the CC50 at 168 h in “in vitro” was determined as 857 µM.
Consider `CCOC(=O)OC[C@H]1O[C@@H](n2ccc(N)nc2=O)CS1`, for which, in “physchem”, the logP is -0.31. For the same compound, in data set [1], the IC50 was found to be 0.2 µM. In “in vitro”, this compound had a CC50 at 168 h of 3000 µM.
The like results for `CCCCCOC(=O)OC[C@H]1O[C@@H](n2ccc(N)nc2=O)CS1` were, in that order, 1.23, 0.065 µM and 1290 µM.
For `CCCOC(=O)OC[C@H]1O[C@@H](n2ccc(N)nc2=O)CS1`, in that order: 0.2, 0.3 µM and 3330 µM.
For `CCCCCCCCOC(=O)OC[C@H]1O[C@@H](n2ccc(N)nc2=O)CS1`, in that order: 1.72, 0.2 µM and 450 µM.
In turn, `CC(C)CCOC(=O)OC[C@H]1O[C@@H](n2ccc(N)nc2=O)CS1` gave a lipophilicity (logP) in “physchem” of -0.15. For the same compound, the IC50 in data set [1] was found to be 1.27 µM. In the data set “in vitro”, the CC50 at 168 h was found to be 3330 µM.

By logP is commonly meant a log measure of how a compound divides between an organic and an aqueous phase. A low value points to lower lipophilicity. By IC50 is commonly meant the concentration that inhibits the measured activity by half. A lower IC50 goes with inhibition by little substance.
